# System: lawn grass (European grass, evergreen lawn grass)
# Experiment: Hydroponic cultivation of a lawn grass: withering prevention and growth
# Format: in vivo
# Details: for Average root length / Leaf length MAX. / Leaf length MIN. / Total weight of living plant: 5 stocks; for Number of days till the plants were withered: from transplantation till about 70 percent of the leaves were withered
# Procedure: Seedlings of a lawn grass (European grass, evergreen lawn grass) were cultivated and divided into eight groups of A to H, one group being composed of 80 stocks. In the groups B to H, inosine and uridine were added to each hydroponic liquid in such amount that the concentration became as shown in the table, and proline was diluted with water such that the concentration became as shown in the table and sprayed onto the leaves every day. Group A was the control.
# On the 35th day, five average stocks which had not been withered were sampled from each group. […] In the table, the number of days till the plants were withered means the number of days from transplantation of the seedlings till about 70 percent of the leaves were withered.
# [1] = group B: 2 ppm inosine in hydroponic liquid
# [2] = group B: 2 ppm inosine in hydroponic liquid, 35th day
# [3] = group D: 2 ppm proline sprayed onto leaves every day, 35th day
# [4] = group F: 35 ppm proline sprayed onto leaves every day, 35th day
# [5] = group G: 0.1 ppm proline sprayed onto leaves every day, 35th day
smiles,measurement,setting,value
"OC[C@H]1O[C@@H](n2cnc3c(O)ncnc32)[C@H](O)[C@@H]1O [inosine, reference compound]",Remarks,[1],Wilted and partially
same,Average root length,[2],2 cm
same,Leaf length MAX.,[2],27 cm
same,Leaf length MIN.,[2],8 cm
same,Total weight of living plant,[2],0.22 g
same,Number of days till the plants were withered,[1],25 days
O=C(O)[C@@H]1CCCN1 [proline],Remarks,group D: 2 ppm proline,Both leaves and steins
same,Average root length,[3],3 cm
same,Leaf length MAX.,[3],21 cm
same,Leaf length MIN.,[3],12 cm
same,Total weight of living plant,[3],0.54 g
same,Number of days till the plants were withered,group D: 2 ppm proline,38 days
same,Remarks,group F: 35 ppm proline,Partially wilted.
same,Average root length,[4],2 cm
same,Leaf length MAX.,[4],20 cm
same,Leaf length MIN.,[4],8 cm
same,Total weight of living plant,[4],0.28 g
same,Number of days till the plants were withered,group F: 35 ppm proline,28 days
same,Remarks,group G: 0.1 ppm proline,Partially wilted.
same,Average root length,[5],2 cm
same,Leaf length MAX.,[5],19 cm
same,Leaf length MIN.,[5],7 cm
same,Total weight of living plant,[5],0.22 g
same,Number of days till the plants were withered,group G: 0.1 ppm proline,27 days
same,"Growth at the root, leaf length and total weight of the living plants","proline-treated plot, especially at a concentration of 2 ppm, 35th day",better growth

# Reference: patent publication US6448202B1, “Withering-preventing and quick-acting nutrition supplementing agent for gramineous plants” (Ajinomoto Co., Inc., priority 1999, dated 2002)
